Results published in US6297230A, “Cyanoaziridines for treating cancer” (priority 2000, dated 2001).

Legend:
[1] = tested on: Human 8226 myeloma tumors; assay: Antitumor efficacy in SCID mice bearing human 8226 myeloma tumors (40-fold doxorubicin resistant); assay type: in vivo, human tumor xenograft in SCID mice
Text: Testing for Antitumor Efficacy in Mice with Severe Combined Immunodeficiency Disease (SCID)
The SCID mouse represents an autosomal recessive mutation in an inbred strain of […] mice which renders the animals profoundly immunodeficient and able to accept tissue xenografts from rats, humans or other strains of mice. (Ware, et al., J Immunol Methods 85:353-361, 1985.) The immunologic defect results from an inability to carry out normal immunoglobulin and T-cell receptor recombination reactions during the development of T- and B-lymphocytes. This renders mice with very low levels of T- and B-cells, and low levels of antibody production which allows foreign (allogeneic or xenogeneic) tissue grafts to grow in vivo. […] (Phillips, et al., Curr Top Microbiol Immunol 152:259-263, 1989.) Compared to athymic nude mice, SCID mice accept more tumor tissue types and breed more efficiently. (Phillips, et al., Curr Top Microbiol Immunol 152:259-263, 1989.) The SCID mice are also more sensitive to ionizing radiation (Budach, et al., Cancer Res 52(22):6292-6296, 1992) due to a defect in DNA double strand break repair. (Chang, et al., Cancer Res 53:1244-1248, 1993.) Because some SCID mice can spontaneously revert to a more normal phenotype, serum immunoglobulin […] (IgG) levels are routinely measured and if elevated (leaky phenotype syndrome), the mouse is excluded from further study.
(§1) The SCID mouse colony is maintained in a barrier facility with specially filtered air, autoclaved (sterilized) food and water and protective handling precautions (gloves, mask, gown) to prevent inadvertent infection. For tumor studies, human tumor cells are grown in vitro, harvested, counted and injected subcutaneously into the front flank area. Tumor cell innocula range from 10^6 -2×10^7 cells/mouse. Palpable tumors begin to develop after 1-3 weeks and sizes are determined by caliper measure of the widest perpendicular diameters. These dimensions are converted to mass using the formula:
wherein W=the shorter of the two dimensions and L=the longer diameter value.
Tumor growth rates are plotted as mass (g) per days after inoculation.
Drug treatments are given by intravenous (IV) or intraperitoneal (IP) injection beginning 24 hours after tumor implantation (day 1). […] Drug therapy began 1 day later with AMP-404 dissolved in a water-miscible co-solvent system containing (per mL): benzyl alcohol 30 mg; polysorbate 80 mw, 80 mg; polyethylene glycol 300 mw, 650 mg; and q.s. to 1.0 mL in absolute ethanol. The daily dose was either 50 mg/kg or 100 mg/kg. […]

[2] = Body weight and lethality in SCID mice treated with AMP-404; assay type: in vivo
Experimental: as §1, with “formula: […]” for “formula:”
Drug treatments are given by intravenous (IV) or intraperitoneal (IP) injection beginning 24 hours after tumor implantation (day 1). […] Drug therapy began 1 day later with AMP-404 dissolved in a water-miscible co-solvent system containing (per mL): benzyl alcohol 30 mg; polysorbate 80 mw, 80 mg; polyethylene glycol 300 mw, 650 mg; and q.s. to 1.0 mL in absolute ethanol. The daily dose was either 50 mg/kg or 100 mg/kg. Therapy was continued daily for […] and tumors were measured three times per week up to the 7 week ending period (two weeks after stopping drug therapy).

Q: Which Antitumor effect ([1]; 50 mg/kg daily) does the source give for `N#CC1CN1C(=O)Nc1ccccc1` (stereo not shown) [AMP 404, 2-Cyanoaziridine-1-(N-phenyl)carboxamide] here?
A: The Antitumor effect was “not active”.

Q: And the “Mean (SD) tumor volume” value ([1]; 50 mg/kg daily, Week 3)?
A: Its value is 104.2 (78.6) mm^3.

Q: What about the “Mean (SD) tumor volume” value ([1]; 50 mg/kg daily, Week 4) of the same molecule?
A: Its value is 247.9 (225.9) mm^3.

Q: What about the “Mean (SD) tumor volume” value ([1]; 50 mg/kg daily, Week 5) of the same molecule?
A: Its value is 574.2 (296.2) mm^3.

Q: What about the “Mean (SD) tumor volume” value ([1]; 50 mg/kg daily, Week 6) of the same molecule?
A: The value was 1,020 (396.2) mm^3.

Q: What about the “Mean (SD) tumor volume” value ([1]; 50 mg/kg daily, Week 7) of the same molecule?
A: The value was 1,858.4 (941.4) mm^3.

Q: What about the “Mean reduction in tumor volume” value ([1]; 100 mg/kg) of the same molecule?
A: The value was 50%.

Q: And the “Mean (SD) tumor volume” value ([1]; 100 mg/kg daily, Week 3, P-value .005 vs control)?
A: Its value is 32.9 (17.9) mm^3.

Q: And the “Mean (SD) tumor volume” value ([1]; 100 mg/kg daily, Week 4, P-value .068 vs control)?
A: The value was 104.9 (81.8) mm^3.

Q: What about the “Mean (SD) tumor volume” value ([1]; 100 mg/kg daily, Week 5, P-value .229 vs control) of the same molecule?
A: The value was 312.5 (195.5) mm^3.

Q: And the “Mean (SD) tumor volume” value ([1]; 100 mg/kg daily, Week 6, P-value .100 vs control)?
A: Its value is 357.3 (314.5) mm^3.

Q: And the “Mean (SD) tumor volume” value ([1]; 100 mg/kg daily, Week 7, P-value 0.19 vs control)?
A: The value was 824.5 (793.7) mm^3.

Q: What about the “Tumor size at end of 6 week experiment” value ([1]; 100 mg/kg, control approximately 1,000 mm^3) of the same molecule?
A: Its value is “approximately 300 mm^3”.

Q: And the “Onset of developing palpable tumors” value ([1]; after inoculation)?
A: Its value is 3 weeks.

Q: And the “Tumor take rate (% of inoculated mice developing palpable tumors)” value ([1]; all 3 groups)?
A: Its value is 100%.

Q: What about the “Antitumor activity in vivo” value ([1]; multidrug-resistant human myeloma, SCID mice) of the same molecule?
A: The value was “active against multidrug-resistant human myeloma cells in vivo”.

Q: What about the Weight loss ([2]; 50 mg/kg daily) of the same molecule?
A: The Weight loss was “no apparent weight loss”.

Q: And the “Mean body weight loss compared to control” value ([2]; 100 mg/kg daily)?
A: Its value is 15-20%.

Q: What about the Drug-induced lethality ([2]; mouse, in vivo) of the same molecule?
A: The Drug-induced lethality was “no drug-induced lethality”.
